We go through 38 molecules from patent publication US6878742B2, “Heterocyclic sulfonamide inhibitors of beta amyloid production” (Wyeth, priority 2000, dated 2005).

The test system of the test is amyloid precursor protein (APP) proteolysis. As to the kind of experiment: Repressor Release Assay (RRA). The format is cell-based. The conditions noted are these: for fold induction at 20 µg/mL / fold induction at 10 µg/mL: read-out: APPI Fold Increase. In outline: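 CHO-K1 cells grown in DMEM with 10% fetal bovine serum were transiently co-transfected with pRSVO-luc and APP-lacI constructs via Lipofectamine Plus, plated into opaque 96-well plates, and exposed to diluted compound in duplicate for 36-48 hours at 37° C. LucLite luciferase signal was read on a TopCount and expressed as fold increase in relative light units over Hepes/DMSO diluent control.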

Setting [1] is: Conc 20 μg/mL, luciferase activity over diluent control.
[2] abbreviates: Conc 10 μg/mL, luciferase activity over diluent control.
Where [3] appears, read: Conc 1 μg/mL, luciferase activity over diluent control.
[4] abbreviates: Conc 3 μg/mL, luciferase activity over diluent control.

Where “and” joins values, the source holds several entries; their conditions need not be identical. Equal values may be shown once. Read-outs that look alike come from different tables or passages of the source.

As to `CCCCCC[C@@H](c1ccco1)[C@@H](CO)NS(=O)(=O)c1ccc(Cl)s1` [Example 51, 5-chloro-N-[(1S,2R)-2-(2-furyl)-1-(hydroxymethyl)octyl]thiophene-2-sulfonamide], under setting [1], the fold induction at 20 µg/mL worked out at 4. On the same count and under the same terms, the result for `CCC(CC)[C@@H](CO)NS(=O)(=O)c1ccc(F)s1` [Example 227, N-[(S)-2-Ethyl-1-(hydroxymethyl)butyl]-5-fluorothiophene-2-sulfonamide] reads 26.3. On the same count and under the same terms, the result for `CC[C@H](C)[C@@H](CO)NS(=O)(=O)c1ccc(F)s1` [Example 208, 5-Fluoro-N-[(1S,2S)-1-(hydroxymethyl)-2-methylbutyl]-2-thiophenesulfonamide] reads 16.5. In the case of `CC[C@H](C)[C@H](NS(=O)(=O)c1ccc(Cl)s1)C(O)c1ccc(F)cc1` (stereo partly drawn) [Example 130, 5-chloro-N-{(S,S)-1-[(4-fluorophenyl)(hydroxy)methyl]-2-methylbutyl}thiophene-2-sulfonamide], the fold induction at 10 µg/mL under setting [2] is 1.85. As to `CC[C@@H](C)[C@@H](CO)NS(=O)(=O)c1ccc(Br)s1` [Example 17], the “APPI Fold Increase” value is 2.38 fold under setting [3]; 3.47 fold under setting [4]; 3.29 fold under setting [2]; 6.1 fold and 3.5 fold under setting [1].

Consider `CCCC(CCC)[C@@H](CO)NS(=O)(=O)c1ccc(Cl)s1` [Example 40, 5-chloro-N-[(1S)-2-propyl-1-(hydroxymethyl)pentyl]thiophene-2-sulfonamide], for which, under setting [1], the fold induction at 20 µg/mL is 3.9. Still for that read-out and setting: the result for `CCCCC(CO)NS(=O)(=O)c1ccc(Cl)s1` (racemic) [Example 91, 5-chloro-N-[1-(hydroxymethyl)pentyl]thiophene-2-sulfonamide] reads 2. As to `CCCCC(O)C(NS(=O)(=O)c1ccc(Cl)s1)C(C)CC` (mixture of isomers) [Example 123], the “APPI Fold Increase” value under setting [2] was 2.14 fold and 1.76 fold.

As for `O=S(=O)(NC1(CO)CCCCC1)c1ccc(Cl)s1` [Example 177, 5-Chloro-N-[1-(hydroxymethyl)cyclohexyl]thiophene-2-sulfonamide], the fold induction at 20 µg/mL under setting [1] came to 5.1.

With `CCC(C)C(NS(=O)(=O)c1ccc(Cl)s1)C(O)CC` (mixture of isomers) [Example 129], the “APPI Fold Increase” value is 1.61 fold under setting [4]; 7.43 fold and 4.59 fold under setting [2]. As to `CC(C)CC(CO)NS(=O)(=O)c1ccc(Br)s1` (stereo not drawn) [Example 105], the “APPI Fold Increase” value runs as follows: under setting [3], 1.57 fold; under setting [4], 2.23 fold; under setting [2], 3.93 fold; under setting [1], 2.4 fold and 1.5 fold. Turning to `C=CCCC(O)(CCC=C)[C@@H](NS(=O)(=O)c1ccc(Cl)s1)[C@@H](C)CC` [Example 171, N-{(S)-2-but-3-enyl-2-hydroxy-1-[(S)-1-methylpropyl]hex-5-enyl}-5-chlorothiophene-2-sulfonamide], the fold induction at 10 µg/mL under setting [2] worked out at 5.32.

`CC(c1ccccc1)C(CO)NS(=O)(=O)c1ccc(Br)s1` (racemic) [Example 15, 5-bromo-N-[1-(hydroxymethyl)-2-phenylpropyl]thiophene-2-sulfonamide]: the fold induction at 10 µg/mL under setting [2] came to 3.08. On to `CCCNC1CCC(C(CO)NS(=O)(=O)c2ccc(Cl)s2)CC1` (mixture of isomers) [Example 214], for which the “APPI Fold Increase” value under setting [1] is reported as 2.1 fold. On to `CC[C@H](C)[C@@H](CO)NS(=O)(=O)c1ccc(Br)s1` [Example 2], for which the “APPI Fold Increase” value under setting [3] was 1.79 fold and 1.54 fold; the “APPI Fold Increase” value under setting [4] was 2.96 fold and 2.34 fold; the “APPI Fold Increase” value under setting [2] is 4.26 fold and 3.2 fold and 3.06 fold; the “APPI Fold Increase” value under setting [1] was 4.5 fold and 5.5 fold and 6.3 fold.

On to `CC(NCc1ccccc1)[C@@H](CO)NS(=O)(=O)c1ccc(Cl)s1` (stereo partly drawn) [Example 84, N-[(1S)-2-(benzylamino)-1-(hydroxymethyl)propyl]-5-chloro-2-thiophenesulfonamide], for which the fold induction at 20 µg/mL under setting [1] came out at 3.8. The same measure, in the same setting: the same measure for `CC[C@H](c1ccc(OC)cc1)[C@@H](CO)NS(=O)(=O)c1ccc(Cl)s1` [Example 32, 5-chloro-N-[(1S,2R)-1-(hydroxymethyl)-2-(4-methoxyphenyl)butyl]thiophene-2-sulfonamide]: 5.

In the case of `CC[C@H](C)[C@H](NS(=O)(=O)c1cccs1)C(O)C1CCCC1` (stereo partly drawn) [Example 140, N-{(S,S)-1-[cyclopentyl(hydroxy)methyl]-2-methylbutyl}thiophene-2-sulfonamide], the fold induction at 10 µg/mL under setting [2] came to 2.57. Consider `CC[C@@H](c1ccc(-c2ccccc2)cc1)[C@@H](CO)NS(=O)(=O)c1ccc(Cl)s1` [Example 54, N-[(1S,2S)-2-[1,1'-biphenyl]-4-yl-1-(hydroxymethyl)butyl]-5-chlorothiophene-2-sulfonamide], for which the fold induction at 20 µg/mL under setting [1] was found to be 3.3. The same measure, in the same setting: the result for `CC(C)C[C@@H](C)[C@@H](CO)NS(=O)(=O)c1ccc(Br)s1` [Example 56, 5-bromo-N-[(1S,2R)-1-(hydroxymethyl)-2,4-dimethylpentyl]thiophene-2-sulfonamide] reads 6.8; that for `O=S(=O)(N[C@H](CO)CSCc1ccccc1)c1ccc(Cl)s1` [Example 101, N-[R-2-(benzylthio)-1-(hydroxymethyl)ethyl]-5-chlorothiophene-2-sulfonamide], 2.7; that for `CC[C@H](CC(C)C)[C@@H](CO)NS(=O)(=O)c1ccc(Cl)s1` [Example 31, 5-chloro-N-[(1S,2R)-2-ethyl-1-(hydroxymethyl)-4-methylpentyl]thiophene-2-sulfonamide], 4.4. Regarding `CCCC(C)C(CO)NS(=O)(=O)c1ccc(Cl)s1` (stereo not drawn) [Example 20, 5-chloro-N-[1-(hydroxymethyl)-2-methylpentyl]thiophene-2-sulfonamide], the fold induction at 20 µg/mL was 5. In the case of `CC[C@H](C)[C@H](NS(=O)(=O)c1ccc(Cl)s1)C(O)(c1ccc(OC)cc1)c1ccc(OC)cc1` [Example 169, 5-chloro-N-((S,S)-1-{hydroxy[bis(4-methoxyphenyl)]methyl}-2-methylbutyl)thiophene-2-sulfonamide], the fold induction at 10 µg/mL under setting [2] was 1.51.

As to `CCCCCCC(O)C(NS(=O)(=O)c1ccc(Cl)s1)C(C)CC` (mixture of isomers) [Example 121], the “APPI Fold Increase” value under setting [2] was 1.74 fold and 1.5 fold and 1.56 fold. `C=CCC(O)C(NS(=O)(=O)c1ccc(Cl)s1)C(C)CC` (mixture of isomers) [Example 128]: the “APPI Fold Increase” value runs as follows: under setting [3], 1.52 fold; under setting [4], 2.48 fold; under setting [2], 5.62 fold and 3.86 fold; under setting [1], 5.9 fold. With `CC[C@H](C)[C@H](NS(=O)(=O)c1ccc(Cl)s1)C(O)c1ccc(N(C)C)cc1` (stereo partly drawn) [Example 139, 5-chloro-N-{(S,S)-1-[[4-(dimethylamino)phenyl](hydroxy)methyl]-2-methylbutyl}thiophene-2-sulfonamide], the fold induction at 10 µg/mL under setting [2] worked out at 3.97.

As for `CCC(O)[C@@H](NS(=O)(=O)c1cccs1)[C@@H](C)CC` (stereo partly drawn) [Example 148, N-{(S)-2-hydroxy-1-[(S)-1-methylpropyl]butyl}thiophene-2-sulfonamide], the fold induction at 10 µg/mL under setting [2] is 1.52. Consider `CCCC(CO)NS(=O)(=O)c1ccc(Cl)s1` (racemic) [Example 97, 5-chloro-N-[1-(hydroxymethyl)butyl]thiophene-2-sulfonamide], for which the fold induction at 20 µg/mL under setting [1] came out at 1.8.

As for `CC#CC(O)[C@@H](NS(=O)(=O)c1cccs1)[C@@H](C)CC` (stereo partly drawn) [Example 152, N-{(S)-2-hydroxy-1-[(S)-1-methylpropyl]pent-3-ynyl}thiophene-2-sulfonamide], the fold induction at 10 µg/mL under setting [2] came out at 1.51. Regarding `O=S(=O)(NC(CO)C1CCCC1)c1ccc(Cl)s1` (stereo not drawn) [Example 24, 5-chloro-N-(1-cyclopentyl-2-hydroxyethyl)thiophene-2-sulfonamide], the fold induction at 20 µg/mL amounted to 6. Take `CCCCCCC(O)[C@@H](NS(=O)(=O)c1cccs1)[C@@H](C)CC` (stereo partly drawn) [Example 141, N-{(S)-2-hydroxy-1-[(S)-1-methylpropyl]octyl}thiophene-2-sulfonamide]: under setting [2], the fold induction at 10 µg/mL is 4.2. For `CCCCC(CCCC)[C@@H](CO)NS(=O)(=O)c1ccc(Cl)s1` [Example 205, N-[(1S)-2-Butyl-1-(hydroxymethyl)hexyl]-5-chloro-2-thiophenesulfonamide], the fold induction at 20 µg/mL under setting [1] was found to be 2.6. Same read-out and setting: the same measure for `CC[C@H](C)[C@@H](C=O)NS(=O)(=O)c1ccc(Cl)s1` [Example 118, 5-Chloro-N-[(S,S)-1-formyl-2-methylbutyl]thiophene-2 sulfonamide]: 4.8; for `CC(C)C[C@@H](c1ccccc1)[C@@H](CO)NS(=O)(=O)c1ccc(Br)s1` [Example 68, 5-bromo-N-[(1S,2S)-1-(hydroxymethyl)-4-methyl-2-phenylpentyl]thiophene-2-sulfonamide]: 2.3. Turning to `CC[C@H](C)[C@H](NS(=O)(=O)c1cccs1)C(O)c1ccccc1C` (stereo partly drawn) [Example 144, N-{(S,S)-1-[hydroxy(2-methylphenyl)methyl]-2-methylbutyl}thiophene-2-sulfonamide], the fold induction at 10 µg/mL under setting [2] is 1.51.

On to `C=CCCC(O)[C@@H](NS(=O)(=O)c1ccc(Cl)s1)[C@@H](C)CC` (stereo partly drawn) [Example 137, 5-chloro-N-{(S)-2-hydroxy-1-[(S)-1-methylpropyl]hex-5-enyl}thiophene-2-sulfonamide], for which, under setting [2], the fold induction at 10 µg/mL was 1.96. Turning to `CC[C@H](C)[C@@H](CO)N(CCOc1ccccc1)S(=O)(=O)c1ccc(Cl)s1` [Example 87, 5-Chloro-N-[(1S,2S)-1-(hydroxymethyl)-2-methylbutyl]-N-(2-phenoxyethyl)thiophene-2-sulfonamide], the fold induction at 20 µg/mL under setting [1] came out at 3.1.
